Source: PubChem BioAssay (NCI)
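Protocol summary: plate cells (96-well), add compound at 5 concentrations, incubate 48 h, interpolate endpoints linearly. Definition used: TGI = concentration required for complete inhibition of growth.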

Assays:
Test in all cases: NCI tumour cell line growth inhibition, 48 h
[1] = test system: DMS 114 small cell lung
[2] = test system: LXFL 529 NSCLC
[3] = test system: M19-MEL melanoma
[4] = test system: DLD-1 colon
[5] = test system: DMS 273 small cell lung
[6] = test system: P388 leukemia
[7] = test system: P388/ADR leukemia
[8] = test system: SN12K1 renal
[9] = test system: SNB-78 CNS

O=C1C(Cl)N(c2cccc(Cl)c2)C1c1c[nH]c2ccccc12 (stereo not given)
TGI [1]: > 100 µM | TGI [2]: > 100 µM | TGI [3]: > 100 µM

COc1ccc2c(c1O)-c1cc(O)cc3c1[C@@H](C2)N(C)CC3
TGI [4]: 121 µM | TGI [5]: 127 µM | TGI [3]: 128 µM | TGI [6]: 106 µM | TGI [7]: 180 µM | TGI [8]: 122 µM | TGI [9]: 212 µM
